The values below come from patent US20240124442A1, “TRICYCLIC-AMIDO-BICYCLIC PRMT5 INHIBITORS” (AMGEN INC., priority 2021, published 2024).

For experiment [1], the system named is HCT116 MTAP null cells. Briefly: HCT116 MTAP null cell line proliferation / cell viability (CellTiter-Glo, 6 days). As to conditions: 144 h; HCT116 MTAP null cells, 6 days treatment, CellTiter-Glo cell viability; read-out: HCT-116 MTAP null IC50. The format is cell-based. The procedure, abridged: (§1)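 Isogenic HCT116 parent and MTAP-knockout cells in RPMI 1640 + 10% FBS, plated overnight, then exposed to compound for 6 days (37 °C, 5% CO2). Viability by CellTiter-Glo luminescence. Dilutions: 8–9 points from 1 or 10 μM (1:3), or 22 points from 10 or 50 μM (1:2); IC50 by 4-parameter or Hill −1 fit.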
In general terms: Cellular ATP, detected with luciferase, serves as a proxy for viable cell number.

Experiment [2] deals with HCT116 WT cells. The experiment in a line: HCT116 WT (parent) cell line proliferation / cell viability (CellTiter-Glo, 6 days). The format is cell-based. As to conditions: Homo sapiens, HCT-116, 144 h, 6 days treatment. The procedure, abridged:
as §1

Regarding `CN(C(=O)c1cc2c(cc1F)nc(N)c1cnn(C)c12)[C@H]1COc2cc(S(C)(=O)=O)ccc21` (single isomer, unassigned) [Example 379], the figures for the half-inhibitory concentration (IC50) in experiment [1] and in experiment [2] were 490 nM and 13500 nM, respectively.
In the same order, the values of `CN(C(=O)c1cc2c(cc1F)nc(N)c1cnn(C)c12)[C@@H]1COc2cc(C(F)(F)F)cc(F)c21` (single isomer, unassigned) [Example 380] are 23 nM and 1540 nM.
For `CN(C(=O)c1cc2c(cc1F)nc(N)c1cnn(C)c12)[C@H]1COc2cc(C(F)(F)F)cc(F)c21` (single isomer, unassigned) [Example 381] the same measures were 195 nM and 11100 nM.
For `CN(C(=O)c1cc2c(cc1F)nc(N)c1cnn(C)c12)[C@@H]1COc2cc(S(F)(F)(F)(F)F)ccc21` (single isomer, unassigned) [Example 382] the same measures were 4 nM and 63 nM.
As for `CN(C(=O)c1cc2c(cc1F)nc(N)c1cnn(C)c12)[C@H]1COc2cc(S(F)(F)(F)(F)F)ccc21` (single isomer, unassigned) [Example 383], the concentration for half-maximal inhibition (IC50) turned out to be 380 nM in experiment [1] and 5660 nM in experiment [2].
In the same order, the values of `CN(C(=O)c1cc2c(cc1Cl)nc(N)c1cnn(C)c12)[C@]1(C)CCc2nc(C(F)(F)F)ccc21` (single isomer, unassigned) [Example 384] are 869 nM and 17200 nM.
Regarding `CN(C(=O)c1cc2c(cc1Cl)nc(N)c1cnn(C)c12)[C@@H]1CCc2nc(C(F)(F)F)ccc21` (single isomer, unassigned) [Example 385], the half-maximal inhibitory concentration (IC50) is 7 nM in experiment [1] and 297 nM in experiment [2].
In the same order, the values of `CN(C(=O)c1cc2c(cc1Cl)nc(N)c1cnn(C)c12)[C@H]1CCc2nc(C(F)(F)F)ccc21` (single isomer, unassigned) [Example 386] are 552 nM and 13600 nM.
Consider `CN(C(=O)c1cc2c(cc1Cl)nc(N)c1cnn(C)c12)[C@@H]1COc2nc(C(F)(F)F)ccc21` (single isomer, unassigned) [Example 387], for which the concentration for half-maximal inhibition (IC50) in experiment [1] was 5 nM; in experiment [2], 136 nM.
In the same order, the values of `CN(C(=O)c1cc2c(cc1Cl)nc(N)c1cnn(C)c12)[C@H]1COc2nc(C(F)(F)F)ccc21` (single isomer, unassigned) [Example 388] are 136 nM and 7540 nM.
For `CN(C(=O)c1cc2c(cc1F)nc(N)c1c2cnn1C)[C@@H]1CCc2nc(C(F)(F)F)ccc21` (single isomer, unassigned) [Example 389] the same measures were 185 nM and 17200 nM.
In the same order, the values of `CN(C(=O)c1cc2c(cc1F)nc(N)c1c2cnn1C)[C@H]1CCc2nc(C(F)(F)F)ccc21` (single isomer, unassigned) [Example 390] are 6550 nM and 25000 nM.
Turning to `Cc1nn(C)c2c1c(N)nc1cc(F)c(C(=O)N(C)[C@@H]3COc4cc(S(F)(F)(F)(F)F)ccc43)cc12` (single isomer, unassigned) [Example 391], the IC50 came out at 38 nM in experiment [1] and 1040 nM in experiment [2].
For `Cc1nn(C)c2c1c(N)nc1cc(F)c(C(=O)N(C)[C@H]3COc4cc(S(F)(F)(F)(F)F)ccc43)cc12` (single isomer, unassigned) [Example 392] the same measures were 995 nM and 8300 nM.
In the same order, the values of `COc1ccc2c(c1)COC[C@H]2N(C)C(=O)c1ccc2nc(N)c3c(c2c1)COC3` (single isomer, unassigned) [Example 393] are 136 nM and 4070 nM.
For `C[C@H]1OCc2c1c(N)nc1ccc(C(=O)N(C)[C@@H]3COCc4cc(Br)ccc43)cc21` (single isomer, unassigned) [Example 394] the same measures were 25 nM and 1440 nM.
`C[C@H]1OCc2c1c(N)nc1ccc(C(=O)N(C)[C@H]3COCc4cc(Br)ccc43)cc21` (single isomer, unassigned) [Example 395]: the IC50 came to 696 nM in experiment [1] and 10000 nM in experiment [2].
In the same order, the values of `CCN(C(=O)c1ccc2nc(N)c3c(c2c1)CO[C@@H]3C)[C@@H]1COCc2cc(Br)ccc21` (single isomer, unassigned) [Example 396] are 10 nM and 272 nM.
`CCN(C(=O)c1ccc2nc(N)c3c(c2c1)CO[C@@H]3C)[C@H]1COCc2cc(Br)ccc21` (single isomer, unassigned) [Example 397]: the IC50 is 599 nM in experiment [1] and 18700 nM in experiment [2].
For `CN(C(=O)c1cc2c3c(c(N)nc2cn1)COC3)[C@@H]1COCc2cc(Br)ccc21` (single isomer, unassigned) [Example 398] the same measures were 20 nM and 911 nM.
In the same order, the values of `CN(C(=O)c1cc2c3c(c(N)nc2cn1)COC3)[C@H]1COCc2cc(Br)ccc21` (single isomer, unassigned) [Example 399] are 1330 nM and 10000 nM.
In the same order, the values of `COc1ccc2c(c1)COC[C@H]2N(C)C(=O)c1cc2c3c(c(N)nc2cc1F)COC3` (single isomer, unassigned) [Example 400] are 50 nM and 2110 nM.
On to `CN(C(=O)c1cc2c3c(c(N)nc2cc1F)COC3)[C@@H]1CCOc2cc(C(F)(F)F)ccc21` (single isomer, unassigned) [Example 401], for which the IC50 is 148 nM in experiment [1] and 6570 nM in experiment [2].
In the same order, the values of `CN(C(=O)c1cc2c3c(c(N)nc2cc1Cl)COC3)[C@@H]1COCc2nc(C#N)ccc21` (single isomer, unassigned) [Example 402] are 8 nM and 436 nM.
In the same order, the values of `CN(C(=O)c1cc2c3c(c(N)nc2cc1Cl)COC3)[C@H]1COCc2nc(C#N)ccc21` (single isomer, unassigned) [Example 403] are 463 nM and 25800 nM.
For `CN(C(=O)c1cc2c3c(c(N)nc2cc1Cl)COC3)[C@@H]1COCc2c1ccc(C(F)(F)F)c2F` (single isomer, unassigned) [Example 404] the same measures were 9 nM and 250 nM.
Consider `CN(C(=O)c1cc2c3c(c(N)nc2cc1Cl)COC3)[C@H]1COCc2c1ccc(C(F)(F)F)c2F` (single isomer, unassigned) [Example 405], for which the values for the IC50 in experiment [1] and in experiment [2] were 696 nM and 14700 nM, respectively.
For `C[C@H]1OC[C@@H](N(C)C(=O)c2cc3c4c(c(N)nc3nc2Cl)COC4)c2ccc(C(F)(F)F)cc21` (single isomer, unassigned) [Example 406] the same measures were 11 nM and 322 nM.
As to `CN(C(=O)c1ccc2nc(N)c3cnn(C)c3c2c1)[C@@H]1COCc2c(F)cncc21` (single isomer, unassigned) [Example 407], the IC50 in experiment [1] stood at 554 nM; in experiment [2], 23300 nM.
For `COc1ccc2c(c1)COC[C@H]2N(C)C(=O)c1ccc2nc(N)c3cnn(C)c3c2c1` (single isomer, unassigned) [Example 408] the same measures were 24 nM and 1710 nM.
For `CN(C(=O)c1ccc2nc(N)c3cnn(C)c3c2c1)[C@@H]1COCc2c1ccc(F)c2F` (single isomer, unassigned) [Example 409] the same measures were 48 nM and 3910 nM.
Consider `CCOc1ccc2c(n1)COC[C@H]2N(C)C(=O)c1ccc2nc(N)c3cnn(C)c3c2c1` (single isomer, unassigned) [Example 410], for which the figures for the half-maximal inhibitory concentration (IC50) in experiment [1] and in experiment [2] were 21 nM and 1470 nM, respectively.
For `CN(C(=O)c1ccc2nc(N)c3cnn(C)c3c2c1)[C@@H]1CCCc2nc(C(F)(F)F)ccc21` (single isomer, unassigned) [Example 411] the same measures were 83 nM and 6270 nM.
In the same order, the values of `CN(C(=O)c1ccc2nc(N)c3cnn(C)c3c2c1)[C@@H]1COCc2cc(Br)ccc21` (single isomer, unassigned) [Example 412] are 4 nM and 228 nM.
In the same order, the values of `CN(C(=O)c1ccc2nc(N)c3cnn(C)c3c2c1)[C@H]1COCc2cc(Br)ccc21` (single isomer, unassigned) [Example 413] are 360 nM and 7990 nM.
For the compound `C[C@H]1OC[C@@H](N(C)C(=O)c2ccc3nc(N)c4cnn(C)c4c3c2)c2ccc(C(F)(F)F)cc21` (single isomer, unassigned) [Example 414], the values for the IC50 in experiment [1] and in experiment [2] were 1 nM and 19 nM, respectively.
On to `C[C@@H]1OC[C@H](N(C)C(=O)c2ccc3nc(N)c4cnn(C)c4c3c2)c2ccc(C(F)(F)F)cc21` (single isomer, unassigned) [Example 415], for which the concentration for half-maximal inhibition (IC50) in experiment [1] came out at 78 nM; in experiment [2], 2630 nM.
For `CN(C(=O)c1ccc2nc(N)c3cnn(C)c3c2c1)[C@@H]1COCc2c1ccc(C(F)(F)F)c2F` (single isomer, unassigned) [Example 416], the half-maximal inhibitory concentration (IC50) came out at 6 nM in experiment [1] and 414 nM in experiment [2].
For `CN(C(=O)c1ccc2nc(N)c3cnn(C)c3c2c1)[C@H]1COCc2c1ccc(C(F)(F)F)c2F` (single isomer, unassigned) [Example 417] the same measures were 841 nM and 6100 nM.
As for `CN(C(=O)c1ccc2nc(N)c3cnn(C)c3c2c1)[C@@H]1COCc2nc(Br)ccc21` (single isomer, unassigned) [Example 418], the 50% inhibitory concentration (IC50) worked out at 3 nM in experiment [1] and 421 nM in experiment [2].
For `CN(C(=O)c1ccc2nc(N)c3cnn(C)c3c2c1)[C@H]1COCc2nc(Br)ccc21` (single isomer, unassigned) [Example 419] the same measures were 545 nM and 26400 nM.
With `COc1ccc2c(c1)COC[C@H]2N(C)C(=O)c1cc2c(cn1)nc(N)c1cnn(C)c12` (single isomer, unassigned) [Example 420], the figures for the half-maximal inhibitory concentration (IC50) in experiment [1] and in experiment [2] were 15 nM and 439 nM, respectively.

By IC50 is commonly meant the concentration at which inhibition is half-maximal.
